Source: US5593970A, “Heterocyclic anthracycline analogs” (priority 1994, dated 1997)
pIC50: −log10 of the molar value. Structures can show the parent of a compound that is named as a salt. Where two headings read alike, the source gives them in different places.

Assays:
Test in all cases: Microculture tetrazolium assay
Type in all cases: cell-based
SKOV3 = conditions: Homo sapiens, SK-OV-3, SKOV3
HT29 = conditions: Homo sapiens, HT-29, HT29
SKVLB = conditions: for VLB/OV3: IC50 ratio SKVLB/SKOV3; for pIC50: SKVLB
LOX = tested on: LOX
T47D = conditions: Homo sapiens

Row | pIC50 (SKOV3; read-out: IC50) | pIC50 (HT29; read-out: IC50) | pIC50 (SKVLB; read-out: IC50) | pIC50 (LOX; read-out: IC50) | pIC50 (T47D; read-out: IC50) | SMILES | VLB/OV3 (SKVLB) | pIC50 (SKOV3) | pIC50 (HT29) | pIC50 (SKVLB) | pIC50 (LOX) | pIC50 (T47D)
1 | 5.58 | 5.60 | 5.34 | 5.91 | 5.53 | CC(=O)C1CC2=C(C(=O)c3cc4ccccc4c(O)c3C2=O)C(OC[C@H]2COC(C)(C)O2)S1 (stereo partly shown) [BCH-1636] | 1.71 | – | – | – | – | –
2 | – | – | – | – | – | CC(=O)[C@@H]1Cc2c(O)c3c(c(O)c2[C@@H](O[C@H]2O[C@H](CO)[C@@H](O)[C@H](O)[C@H]2NC(=O)N(CCCl)N=O)O1)C(=O)c1ccccc1C3=O [BCH-1999, (1'R, 1R,3S)-3-aceto-5,12-dihydroxy-1(2-deoxy-2-chloroethylnitrosoureido D-glucopyranose)-6,11-dioxo-3,4,6,11-tetrahydro-1H-anthra[2,3-c]pyran] | – | > 5.11 | 5.09 | 6.00 | 5.30 | 4.70
3 | 5.85 | 6.36 | 5.89 | 5.91 | 5.42 | CC(=O)[C@H]1CC2=C(C(=O)c3cc4ccccc4c(O)c3C2=O)[C@H](O[C@H]2C[C@H](O)[C@H](O)[C@H](C)O2)O1 [BCH-1123, (1'S,1S,3R)-Methyl-[6-hydroxy-1-(2',3',6'-trideoxy-3',4'-dihydroxy-L-lyxohexopyranose)-5,12-dioxo-3,4,5,12-tetrahydroanthraceno(2,3-C)pyran-3-yl]ketone] | 0.92 | – | – | – | – | –
4 | 6.48 | 6.71 | 6.38 | 6.98 | 6.70 | CCCCCC1Cc2c(O)c3c(c(O)c2C(O[C@H]2C[C@H](N)[C@H](O)[C@H](C)O2)O1)C(=O)c1ccccc1C3=O (stereo partly drawn) [BCH-2089, (1'S,1R,3R)-5,12-Dihydroxy-3-pentyl-1-(2',3',6'-trideoxy-3'-amino-L-lyxohexopyranose)-1,2,3,4-tetrahydro-(2-oxygen)-naphtacene-6,11-dione-hydrochloride] | 1.27 | – | – | – | – | –
5 | 5.96 | 6.08 | 5.57 | 5.96 | 5.92 | COC[C@H]1CC2=C(C(=O)c3cc4ccccc4c(O)c3C2=O)[C@H](O[C@H]2C[C@H](NC(=O)C(F)(F)F)[C@H](O)[C@H](C)O2)O1 [BCH-1696, (1'S,1S,3R)-5,12-dioxo-6-hydroxy-3-methoxymethyl-1-(2',3',6'-trideoxy-3'-trifluoroacetamido-L-lyxohexopyranose)-3,4,5,12-tetrahydroanthraceno-[2,3-C]pyran] | 2.46 | – | – | – | – | –
6 | 6.36 | 6.77 | 6.40 | 6.84 | 6.50 | CC(C)C(=O)C1Cc2c(O)c3c(c(O)c2C(O[C@H]2C[C@H](N)[C@H](O)[C@H](C)O2)O1)C(=O)c1ccccc1C3=O (mixture of isomers) [BCH-2120, (1'S, 1R,3S) and (1'S, 1S ,3R)-isopropyl-[5,12-dihydroxy-6,11-dioxo-1-(2',3',6'-trideoxy-3'-amino-L-lyxohexopyranose)-3,4,6,11-tetrahydroanthraceno-[2,3-c]-pyran-3-yl]-ketone hydrochloride] | 0.92 | – | – | – | – | –
7 | 4.07 | 4.00 | 4.00 | 4.00 | 4.00 | CC(=O)[C@@H]1Cc2c(O)c3c(c(O)c2[C@@H](O[C@H]2C[C@H](O)[C@H](O)[C@H](C)O2)O1)C(=O)c1ccccc1C3=O [BCH-1624] | – | – | – | – | – | –

Row | SMILES | pIC50 (SKOV3; read-out: IC50) | pIC50 (HT29; read-out: IC50) | pIC50 (SKVLB; read-out: IC50) | pIC50 (LOX; read-out: IC50) | pIC50 (T47D; read-out: IC50) | VLB/OV3 (SKVLB) | pIC50 (SKOV3) | pIC50 (HT29) | pIC50 (SKVLB) | pIC50 (LOX) | pIC50 (T47D)
8 | CC(=O)OCC1([C@@H]2CC3=C(C(=O)c4c(cc5ccccc5c4OC(C)=O)C3=O)[C@@H](O[C@H]3C[C@H](NC(=O)C(F)(F)F)[C@H](O)[C@H](C)O3)O2)OCCCO1 [BCH-1178] | 5.16 | – | 4.89 | 4.91 | 5.15 | 1.85 | – | 5.25 | – | – | –
9 | CCN(CC)C(=O)[C@@H]1CC2=C(C(=O)c3cc4ccccc4c(O)c3C2=O)[C@@H](O[C@H]2C[C@H](NC(=O)C(F)(F)F)[C@H](O)[C@H](C)O2)O1 [BCH-1656] | – | 5.42 | 5.15 | 5.41 | 5.28 | 1.72 | 5.39 | – | – | – | –
